Measurements reported in patent US8961931B2, “18F-labeled monomeric galactose derivative used as tomography probe” (Institute of Nuclear Energy Research, Atomic Energy Council, priority 2011, dated 2015).

Test system: liver
Test: DMN-induced liver fibrosis, H & E and Masson's trichrome staining
Assay type: in vivo, mouse
Description: Please refer to FIG. 6, which is a view showing liver fibrosis of mice dyed through H & E and Masson methods. As shown in the figures, dimethylnitrosamine (DMN) is used to induce liver fibrosis. 12 mice are randomly divided into two groups each having 6 mice. One is an experimental group and the other is a control group. Mice in the experimental group are injected with 10 mg·kg of DMN for 3 continuous days in a week, and this process lasts for four weeks. Mice in the control group are injected with the same amount of normal saline diluted into a density of 10 mg/ml. During the time for inducing liver fibrosis, all mice are fed with food and water normally. Four days after injecting DMN the final time, dyeing methods of H & E and Masson's are used to examine sliced tissues of mouse bodies for confirming DMN's ability on inducing liver fibrosis of the mice.
For examining the tissues, the mice are sacrificed by blowing high-density CO2 for the mice to breathe in at first. Then, the livers are taken out to sink left lateral lobe in 4% pH 7.4 phosphate-buffered paraformaldehyde. After being paraffin-embedded for 24 hrs, 4 μm of each tissue is taken.
The tissues are examined for their morphological changes through methods of Hematoxylin and Eosin stains and then Masson's trichrome is used to examine statuses of liver fibrosis. […]

## CN(C)N=O [DMN, dimethylnitrosamine]
DMN 3 continuous days a week for four weeks
  average weight of mouse having fibrosis liver relative to normal mouse: 92%
Four days after final DMN injection
  Masson's trichrome staining of liver tissue: show blue color on fibrosis tissues
